In the supplement of paper PMC10307832:

What was measured:
Assay in all cases: relative viability (nuclei count vs DMSO), 5 days (fraction); higher = more cells survive
ABC-1 = system: ABC-1
Method in brief: (§1)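 For relative viability, nuclei counts in treated wells were divided by those in vehicle wells. Lung cancer cell lines had been pin-tool dosed in 1536-well plates the day after seeding and cultured for 5 days, then fixed and stained in one step (final 0.05% Triton X-100, 1% formaldehyde, 1 ug/ml Hoechst) and imaged at 4×. Doses were one drug alone or a fixed anchor-drug dose plus five library-drug doses (not always all listed) in √10 steps, and values are duplicate-plate medians.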

CAL-12T = system: CAL-12T
Method in brief: as §1

ChaGo-K-1 = system: ChaGo-K-1
Method in brief: as §1

HCC-366 = system: HCC-366
Method in brief: as §1

HCC-78 = system: HCC-78
Method in brief: as §1

LC-2-ad = system: LC-2-ad
Method in brief: as §1

LOU-NH91 = system: LOU-NH91
Method in brief: as §1

LU99A = system: LU99A
Method in brief: as §1

NCI-H1395 = system: NCI-H1395
Method in brief: as §1

NCI-H1651 = system: NCI-H1651
Method in brief: as §1

NCI-H1755 = system: NCI-H1755
Method in brief: as §1

NCI-H1793 = system: NCI-H1793
Method in brief: as §1

NCI-H1944 = system: NCI-H1944
Method in brief: as §1

NCI-H2087 = system: NCI-H2087
Method in brief: as §1

NCI-H2170 = system: NCI-H2170
Method in brief: as §1

NCI-H2228 = system: NCI-H2228
Method in brief: as §1

NCI-H2405 = system: NCI-H2405
Method in brief: as §1

NCI-H3122 = system: NCI-H3122
Method in brief: as §1

NCI-H460 = system: NCI-H460
Method in brief: as §1

PC-3 [JPC-3] = system: PC-3 [JPC-3]
Method in brief: as §1

RERF-LC-KJ = system: RERF-LC-KJ
Method in brief: as §1

UMC-11 = system: UMC-11
Method in brief: as §1

O=c1cc(N2CCOCC2)oc2c(-c3cccc4c3sc3ccccc34)cccc12 + Cc1nc(Nc2ncc(C(=O)Nc3c(C)cccc3Cl)s2)cc(N2CCN(CCO)CC2)n1 [Dasatinib] (partner 0.075 µM)
relative viability (ABC-1; first compound 0.01 µM): 0.569
relative viability (ABC-1; first compound 0.03162 µM): 0.561
relative viability (ABC-1; first compound 0.1 µM): 0.582
relative viability (ABC-1; first compound 0.3162 µM): 0.488
relative viability (ABC-1; first compound 1 µM): 0.567
relative viability (CAL-12T; first compound 0.01 µM): 0.322
relative viability (CAL-12T; first compound 0.03162 µM): 0.531
relative viability (CAL-12T; first compound 0.1 µM): 0.49
relative viability (CAL-12T; first compound 0.3162 µM): 0.317
relative viability (CAL-12T; first compound 1 µM): 0.295
relative viability (ChaGo-K-1; first compound 0.01 µM): 0.402
relative viability (ChaGo-K-1; first compound 0.03162 µM): 0.641
relative viability (ChaGo-K-1; first compound 0.1 µM): 0.517
relative viability (ChaGo-K-1; first compound 0.3162 µM): 0.609
relative viability (ChaGo-K-1; first compound 1 µM): 0.73
relative viability (HCC-366; first compound 0.01 µM): 0.672
relative viability (HCC-366; first compound 0.03162 µM): 0.69
relative viability (HCC-366; first compound 0.1 µM): 0.725
relative viability (HCC-366; first compound 0.3162 µM): 0.601
relative viability (HCC-366; first compound 1 µM): 0.618
relative viability (HCC-78; first compound 0.01 µM): 0.353
relative viability (HCC-78; first compound 0.03162 µM): 0.363
relative viability (HCC-78; first compound 0.1 µM): 0.275
relative viability (HCC-78; first compound 0.3162 µM): 0.292
relative viability (HCC-78; first compound 1 µM): 0.32
relative viability (LC-2-ad; first compound 0.01 µM): 0.536
relative viability (LC-2-ad; first compound 0.03162 µM): 0.688
relative viability (LC-2-ad; first compound 0.1 µM): 0.775
relative viability (LC-2-ad; first compound 0.3162 µM): 0.578
relative viability (LC-2-ad; first compound 1 µM): 0.527
relative viability (LOU-NH91; first compound 0.01 µM): 0.546
relative viability (LOU-NH91; first compound 0.03162 µM): 0.55
relative viability (LOU-NH91; first compound 0.1 µM): 0.537
relative viability (LOU-NH91; first compound 0.3162 µM): 0.584
relative viability (LOU-NH91; first compound 1 µM): 0.563
relative viability (LU99A; first compound 0.01 µM): 0.552
relative viability (LU99A; first compound 0.03162 µM): 0.596
relative viability (LU99A; first compound 0.1 µM): 0.741
relative viability (LU99A; first compound 0.3162 µM): 0.535
relative viability (LU99A; first compound 1 µM): 0.421
relative viability (NCI-H1395; first compound 0.01 µM): 0.422
relative viability (NCI-H1395; first compound 0.03162 µM): 0.393
relative viability (NCI-H1395; first compound 0.1 µM): 0.407
relative viability (NCI-H1395; first compound 0.3162 µM): 0.367
relative viability (NCI-H1395; first compound 1 µM): 0.454
relative viability (NCI-H1651; first compound 0.01 µM): 0.421
relative viability (NCI-H1651; first compound 0.03162 µM): 0.414
relative viability (NCI-H1651; first compound 0.1 µM): 0.395
relative viability (NCI-H1651; first compound 0.3162 µM): 0.338
relative viability (NCI-H1651; first compound 1 µM): 0.519
relative viability (NCI-H1755; first compound 0.01 µM): 0.511
relative viability (NCI-H1755; first compound 0.03162 µM): 0.412
relative viability (NCI-H1755; first compound 0.1 µM): 0.471
relative viability (NCI-H1755; first compound 0.3162 µM): 0.416
relative viability (NCI-H1755; first compound 1 µM): 0.415
relative viability (NCI-H1793; first compound 0.01 µM): 0.372
relative viability (NCI-H1793; first compound 0.1 µM): 0.394
relative viability (NCI-H1793; first compound 0.3162 µM): 0.314
relative viability (NCI-H1793; first compound 1 µM): 0.405
relative viability (NCI-H1944; first compound 0.01 µM): 0.218
relative viability (NCI-H1944; first compound 0.03162 µM): 0.234
relative viability (NCI-H1944; first compound 0.1 µM): 0.203
relative viability (NCI-H1944; first compound 0.3162 µM): 0.24
relative viability (NCI-H1944; first compound 1 µM): 0.225
relative viability (NCI-H2087; first compound 0.01 µM): 0.989
relative viability (NCI-H2087; first compound 0.03162 µM): 1.02
relative viability (NCI-H2087; first compound 0.1 µM): 0.917
relative viability (NCI-H2087; first compound 0.3162 µM): 0.89
relative viability (NCI-H2087; first compound 1 µM): 0.887
relative viability (NCI-H2170; first compound 0.01 µM): 0.574
relative viability (NCI-H2170; first compound 0.03162 µM): 0.569
relative viability (NCI-H2170; first compound 0.1 µM): 0.728
relative viability (NCI-H2170; first compound 0.3162 µM): 0.557
relative viability (NCI-H2170; first compound 1 µM): 0.621
relative viability (NCI-H2228; first compound 0.01 µM): 0.538
relative viability (NCI-H2228; first compound 0.03162 µM): 0.416
relative viability (NCI-H2228; first compound 0.1 µM): 0.49
relative viability (NCI-H2228; first compound 0.3162 µM): 0.523
relative viability (NCI-H2228; first compound 1 µM): 0.543
relative viability (NCI-H2405; first compound 0.01 µM): 0.188
relative viability (NCI-H2405; first compound 0.03162 µM): 0.224
relative viability (NCI-H2405; first compound 0.1 µM): 0.201
relative viability (NCI-H2405; first compound 0.3162 µM): 0.238
relative viability (NCI-H2405; first compound 1 µM): 0.196
relative viability (NCI-H3122; first compound 0.01 µM): 0.667
relative viability (NCI-H3122; first compound 0.03162 µM): 0.836
relative viability (NCI-H3122; first compound 0.1 µM): 0.753
relative viability (NCI-H3122; first compound 0.3162 µM): 0.764
relative viability (NCI-H3122; first compound 1 µM): 0.751
relative viability (NCI-H460; first compound 0.01 µM): 0.558
relative viability (NCI-H460; first compound 0.03162 µM): 0.54
relative viability (NCI-H460; first compound 0.1 µM): 0.516
relative viability (NCI-H460; first compound 0.3162 µM): 0.512
relative viability (NCI-H460; first compound 1 µM): 0.452
relative viability (PC-3 [JPC-3]; first compound 0.01 µM): 0.97
relative viability (PC-3 [JPC-3]; first compound 0.03162 µM): 0.974
relative viability (PC-3 [JPC-3]; first compound 0.1 µM): 1.02
relative viability (PC-3 [JPC-3]; first compound 0.3162 µM): 0.935
relative viability (PC-3 [JPC-3]; first compound 1 µM): 0.993
relative viability (RERF-LC-KJ; first compound 0.01 µM): 0.85
relative viability (RERF-LC-KJ; first compound 0.03162 µM): 0.918
relative viability (RERF-LC-KJ; first compound 0.1 µM): 0.934
relative viability (RERF-LC-KJ; first compound 0.3162 µM): 0.769
relative viability (RERF-LC-KJ; first compound 1 µM): 0.818
relative viability (UMC-11; first compound 0.01 µM): 0.452
relative viability (UMC-11; first compound 0.03162 µM): 0.471
relative viability (UMC-11; first compound 0.1 µM): 0.487
relative viability (UMC-11; first compound 0.3162 µM): 0.439
relative viability (UMC-11; first compound 1 µM): 0.527
